Measured values published in ChEMBL document CHEMBL1127727, “Synthesis and structure-activity relationships of novel retinoid X receptor-selective retinoids” (J Med Chem, 1994).

Columns and labels:
[1] = molecular target: T1, Retinoic acid receptor RXR-beta (Mus musculus, UniProt P28704); experiment: Effective concentration against retinoid receptor isoform (RXR beta) expressed in CV-1 cells; format: cell-based
T1 sequence (P28704 whole entry): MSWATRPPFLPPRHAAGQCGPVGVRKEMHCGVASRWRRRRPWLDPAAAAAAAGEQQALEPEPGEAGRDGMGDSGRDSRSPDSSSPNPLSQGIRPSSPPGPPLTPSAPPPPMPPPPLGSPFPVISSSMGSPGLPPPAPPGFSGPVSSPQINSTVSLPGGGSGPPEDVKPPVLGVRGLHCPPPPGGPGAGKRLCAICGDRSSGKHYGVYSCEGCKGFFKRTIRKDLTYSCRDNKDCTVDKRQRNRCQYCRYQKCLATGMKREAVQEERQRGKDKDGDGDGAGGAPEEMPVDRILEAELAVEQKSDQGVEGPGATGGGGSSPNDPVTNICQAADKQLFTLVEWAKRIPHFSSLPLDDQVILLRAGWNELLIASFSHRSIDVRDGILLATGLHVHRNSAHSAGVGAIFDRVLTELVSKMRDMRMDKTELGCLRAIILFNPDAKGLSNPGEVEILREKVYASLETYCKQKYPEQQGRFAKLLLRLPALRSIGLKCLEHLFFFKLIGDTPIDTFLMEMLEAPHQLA

[2] = molecular target: T1, Retinoic acid receptor RXR-beta; experiment: Inhibition of [3H]9-cis-RA binding to baculovirus expressed retinoid receptor RXR beta
[3] = molecular target: T2, Retinoic acid receptor beta (Homo sapiens, UniProt P10826); experiment: Effective concentration against retinoid receptor isoform (RAR beta) expressed in CV-1 cells; format: cell-based
T2 sequence (P10826 whole entry): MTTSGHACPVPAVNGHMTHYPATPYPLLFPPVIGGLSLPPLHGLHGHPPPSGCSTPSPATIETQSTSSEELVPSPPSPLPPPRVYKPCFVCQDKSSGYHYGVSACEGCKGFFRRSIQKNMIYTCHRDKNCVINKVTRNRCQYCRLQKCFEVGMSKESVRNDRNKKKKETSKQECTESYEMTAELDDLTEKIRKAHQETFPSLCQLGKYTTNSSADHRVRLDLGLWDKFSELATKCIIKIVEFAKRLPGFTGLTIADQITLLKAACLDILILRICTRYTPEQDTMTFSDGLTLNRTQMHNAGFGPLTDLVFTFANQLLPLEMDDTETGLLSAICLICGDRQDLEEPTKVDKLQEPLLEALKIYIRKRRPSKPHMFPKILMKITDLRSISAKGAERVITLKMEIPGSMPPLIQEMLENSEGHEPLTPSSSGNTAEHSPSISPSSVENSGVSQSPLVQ

[4] = molecular target: T2, Retinoic acid receptor beta; experiment: Inhibition of [3H]ATRA binding to baculovirus expressed retinoid receptor RAR beta
[5] = molecular target: T3, Retinoic acid receptor gamma (Homo sapiens, UniProt P13631); experiment: Effective concentration against retinoid receptor isoform (RAR gamma) expressed in CV-1 cells; format: cell-based
T3 sequence (P13631 whole entry): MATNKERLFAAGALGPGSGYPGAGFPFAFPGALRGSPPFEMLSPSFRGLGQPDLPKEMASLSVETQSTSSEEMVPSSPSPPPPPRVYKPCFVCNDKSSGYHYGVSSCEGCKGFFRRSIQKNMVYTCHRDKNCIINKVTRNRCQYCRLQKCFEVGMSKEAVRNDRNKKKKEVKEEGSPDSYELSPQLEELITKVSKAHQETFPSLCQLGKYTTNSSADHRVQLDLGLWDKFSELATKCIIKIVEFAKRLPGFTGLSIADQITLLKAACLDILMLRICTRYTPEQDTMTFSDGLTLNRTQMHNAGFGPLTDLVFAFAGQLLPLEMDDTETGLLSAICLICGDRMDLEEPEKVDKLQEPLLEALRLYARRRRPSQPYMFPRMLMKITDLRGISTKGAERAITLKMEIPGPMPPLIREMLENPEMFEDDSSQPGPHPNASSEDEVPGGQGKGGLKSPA

[6] = molecular target: T4, Retinoic acid receptor alpha (Homo sapiens, UniProt P10276); experiment: Effective concentration against retinoid receptor isoform (RAR alpha) expressed in CV-1 cells; format: cell-based
T4 sequence (P10276 whole entry): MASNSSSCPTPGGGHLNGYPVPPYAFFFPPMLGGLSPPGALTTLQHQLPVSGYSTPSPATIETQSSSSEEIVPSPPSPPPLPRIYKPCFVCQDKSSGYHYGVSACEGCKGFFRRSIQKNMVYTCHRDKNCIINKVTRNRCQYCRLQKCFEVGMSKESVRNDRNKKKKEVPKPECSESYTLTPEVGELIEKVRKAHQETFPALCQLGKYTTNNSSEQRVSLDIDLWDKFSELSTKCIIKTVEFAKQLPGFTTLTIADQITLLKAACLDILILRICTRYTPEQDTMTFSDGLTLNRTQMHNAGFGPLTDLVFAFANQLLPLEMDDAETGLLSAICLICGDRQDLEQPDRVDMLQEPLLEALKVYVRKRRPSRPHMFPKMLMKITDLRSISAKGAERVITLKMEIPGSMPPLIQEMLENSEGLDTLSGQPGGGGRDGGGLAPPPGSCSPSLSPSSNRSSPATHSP

[7] = molecular target: T4, Retinoic acid receptor alpha; experiment: Inhibition of [3H]-ATRA binding to baculovirus expressed retinoid receptor RAR alpha
[8] = molecular target: T5, Retinoic acid receptor RXR-gamma (Mus musculus, UniProt P28705); experiment: Effective concentration against retinoid receptor isoform (RXR gamma) expressed in CV-1 cells; format: cell-based
T5 sequence (P28705 whole entry): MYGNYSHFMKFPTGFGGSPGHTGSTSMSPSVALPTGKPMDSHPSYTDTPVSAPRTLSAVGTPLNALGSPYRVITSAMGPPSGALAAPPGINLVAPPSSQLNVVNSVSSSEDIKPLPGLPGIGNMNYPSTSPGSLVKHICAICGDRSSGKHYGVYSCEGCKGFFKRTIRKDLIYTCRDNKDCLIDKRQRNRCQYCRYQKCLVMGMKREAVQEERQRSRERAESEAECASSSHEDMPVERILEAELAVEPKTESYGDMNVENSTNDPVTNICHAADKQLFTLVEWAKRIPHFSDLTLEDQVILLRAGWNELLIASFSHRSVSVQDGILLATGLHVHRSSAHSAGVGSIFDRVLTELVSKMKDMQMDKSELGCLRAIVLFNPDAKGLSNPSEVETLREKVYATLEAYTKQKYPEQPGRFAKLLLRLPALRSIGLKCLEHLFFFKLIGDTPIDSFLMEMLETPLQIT

[9] = molecular target: T5, Retinoic acid receptor RXR-gamma; experiment: Inhibition of [3H]9-cis-RA binding to baculovirus expressed retinoid receptor RXR gamma
[10] = molecular target: T3, Retinoic acid receptor gamma; experiment: Tested for binding affinity against [3H]-ATRA binding to retinoid receptor isoform (RAR gamma) expressed in baculovirus
[11] = molecular target: T6, Retinoic acid receptor RXR-alpha (Homo sapiens, UniProt P19793)
T6 sequence (P19793 whole entry): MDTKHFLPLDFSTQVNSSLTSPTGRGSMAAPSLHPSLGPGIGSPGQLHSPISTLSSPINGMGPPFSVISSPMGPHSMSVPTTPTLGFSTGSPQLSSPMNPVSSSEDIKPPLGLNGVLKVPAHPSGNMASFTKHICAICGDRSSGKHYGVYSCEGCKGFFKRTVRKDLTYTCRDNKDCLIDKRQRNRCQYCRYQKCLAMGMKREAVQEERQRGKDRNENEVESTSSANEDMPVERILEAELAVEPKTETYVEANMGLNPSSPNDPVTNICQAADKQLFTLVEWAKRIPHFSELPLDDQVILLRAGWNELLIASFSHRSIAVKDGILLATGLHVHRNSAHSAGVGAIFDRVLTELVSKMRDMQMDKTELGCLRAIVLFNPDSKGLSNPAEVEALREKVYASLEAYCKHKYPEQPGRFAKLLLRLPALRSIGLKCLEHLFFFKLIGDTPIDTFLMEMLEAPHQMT
Description: Inhibition of [3H]9-cis-RA binding to baculovirus expressed retinoid receptor RXR alpha

[12] = molecular target: T6, Retinoic acid receptor RXR-alpha; remark: listed apart in the source
Description: Effective concentration against retinoid receptor isoform (RXR alpha) expressed in CV-1 cells

| EC50 [1] [nM] | Kd [2] [nM] | EC50 [3] [nM] | Kd [4] [nM] | EC50 [5] [nM] | EC50 [6] [nM] | Kd [7] [nM] | EC50 [8] [nM] | Kd [9] [nM] | Kd [10] [nM] | Kd [11] [nM] | EC50 [12] [nM] | SMILES |
| --- | --- | --- | --- | --- | --- | --- | --- | --- | --- | --- | --- | --- |
| > 10000 | 236 | > 10000 | > 1000 | > 10000 | > 10000 | > 1000 | > 10000 | 332 | > 1000 | 137 | > 10000 | C=C(c1ccc(C(=O)O)cc1)c1cc2c(cc1CCC)C(C)(C)CCC2(C)C |
| 313 | 155 | > 10000 | > 1000 | > 10000 | > 10000 | > 1000 | 357 | 309 | > 1000 | 113 | 381 | CC(C)c1cc2c(cc1C(=O)c1ccc(C(=O)O)cc1)C(C)(C)CCC2(C)C |
| 262 | 110 | > 10000 | > 1000 | > 10000 | > 10000 | > 1000 | 225 | 135 | > 1000 | 130 | 294 | CC1(C)CCC(C)(C)c2cc(C(=O)c3ccc(C(=O)O)cc3)c(Cl)cc21 |
| 2200 | > 1000 | > 10000 | > 1000 | > 10000 | > 10000 | > 1000 | 2190 | > 1000 | > 1000 | > 1000 | 2020 | COc1cc2c(cc1C(=O)c1ccc(C(=O)O)cc1)C(C)(C)CCC2(C)C |
| 1980 | 902 | 395 | > 1000 | 1020 | 2860 | > 1000 | 2250 | 911 | > 1000 | 706 | 1820 | CC1(C)CCC(C)(C)c2cc(C(=O)c3ccc(C(=O)O)cc3)c(F)cc21 |
| 486 | 199 | 304 | 909 | 266 | > 10000 | 944 | 404 | 290 | 887 | 150 | 409 | C=C(c1ccc(C(=O)O)cc1)c1ccc2c(c1)C(C)(C)CCC2(C)C |
| 810 | 232 | > 10000 | > 1000 | > 10000 | > 10000 | > 1000 | 384 | 424 | > 1000 | 195 | 514 | CCc1cc2c(cc1C(=O)c1ccc(C(=O)O)cc1)C(C)(C)CCC2(C)C |

The remaining lines, values behind:

| SMILES | EC50 [1] [nM] | Kd [2] [nM] | EC50 [3] [nM] | Kd [4] [nM] | EC50 [5] [nM] | EC50 [6] [nM] | Kd [7] [nM] | EC50 [8] [nM] | Kd [9] [nM] | Kd [10] [nM] | Kd [11] [nM] | EC50 [12] [nM] |
| --- | --- | --- | --- | --- | --- | --- | --- | --- | --- | --- | --- | --- |
| C=C(c1ccc(C(=O)O)cc1)c1cc2c(cc1CC)C(C)(C)CCC2(C)C | 145 | 44 | > 10000 | > 1000 | > 10000 | > 10000 | > 1000 | 136 | 59 | > 1000 | 31 | 115 |
| CC1(C)CCC(C)(C)c2cc(C(=O)c3ccc(C(=O)O)cc3)c(O)cc21 | > 10000 | > 1000 | > 10000 | > 1000 | > 10000 | > 10000 | > 1000 | > 10000 | > 1000 | > 1000 | 818 | > 10000 |
| C=C(c1ccc(C(=O)O)cc1)c1cc2c(cc1Cl)C(C)(C)CCC2(C)C | 33 | 44 | 436 | > 1000 | 1450 | > 10000 | > 1000 | 36 | 44 | > 1000 | 27 | 52 |
| CC1(C)CCC(C)(C)c2cc(C(=O)c3ccc(C(=O)O)cc3)c(Br)cc21 | 120 | 150 | > 10000 | > 1000 | > 10000 | > 10000 | > 1000 | 261 | 150 | > 1000 | 105 | 332 |
| C=C(c1ccc(C(=O)O)cc1)c1cc2c(cc1O)C(C)(C)CCC2(C)C | 202 | 822 | 2240 | > 1000 | > 10000 | > 10000 | > 1000 | 558 | 812 | > 1000 | 487 | 455 |
| CCCc1cc2c(cc1C(=O)c1ccc(C(=O)O)cc1)C(C)(C)CCC2(C)C | > 10000 | 371 | > 10000 | > 1000 | > 10000 | > 10000 | > 1000 | > 10000 | 704 | > 1000 | 269 | > 10000 |
| C=C(c1ccc(C(=O)O)cc1)c1cc2c(cc1C(C)C)C(C)(C)CCC2(C)C | 289 | 75 | > 10000 | > 1000 | > 10000 | > 10000 | > 1000 | 227 | 142 | > 1000 | 55 | 207 |
